Test results reported in US6710165B2, “IgE-dependent histamine-releasing factor-binding peptides” (priority 2000, dated 2004).

How the values were obtained:
malaria protein HRF = malaria protein HRF (Plasmodium falciparum, UniProt Q8I3Z5); conditions: cited from earlier work
RBL-2H3 cells = assay: Inhibition of histamine release by HRF (RIA); format: cell-based; conditions: for effect on histamine release by HRF: peptide 20 μg/ml, HRF 20 μg/ml
Procedure: The full-length rat HRF sequence (Chitpatima, et al., 1988) amplified by PCR was cloned in pRSET-A vector and overexpressed in E. coli. The expressed recombinant protein was purified by His-bound Ni column (Novagen) and used for the stimulation of RBL-2H3 cells. RBL-2H3 cells were grown in 24-well plate at 1×10^6 cells, sensitized with rat IgE antibodies (0.2 μg/ml, Serotec) for 45˜60 minutes and then, treated with 20 μg/ml of the recombinant HRF protein (positive control). The cells as prepared above were dose-dependently treated with heptamer peptides p1 and p2. Also, they were treated with the recombinant HRF protein and peptides p1, p2, p4 and m1 to m7 at the same concentration as that of HRF, i.e. 20 μg/ml, respectively,
The obtained sample was prepared to acylated histamine using RIA-analysis kit (Immunotech, France) and then, competitively bound to ^125I-acylated histamine and monoclonal antibodies. This sample was reanalyzed in γ-counter.

HRF = molecular target: T1, HRF (Rattus norvegicus, UniProt P63029); assay: Competition binding assay of synthetic peptides against phage clones; conditions: for binding site on HRF, competitive binding analysis on ph2: competition with ph2; for competition of synthetic peptide with phage clones for HRF: peptide 0.001-1000 nM, phage 1/25-fold diluted
T1 construct: His tag (pRSET-A); made in house; host or cells: E. coli
T1 sequence (P63029 1-172): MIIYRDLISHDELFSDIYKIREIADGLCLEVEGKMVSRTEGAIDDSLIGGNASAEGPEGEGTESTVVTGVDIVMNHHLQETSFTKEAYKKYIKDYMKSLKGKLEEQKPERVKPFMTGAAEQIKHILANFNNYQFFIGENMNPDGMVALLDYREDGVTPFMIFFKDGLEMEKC
Procedure: Also, as a negative control, random peptide (ran, amino acid sequence: LMEGCRA) was synthesized. To the wells coated with HRF was added each 30 μl of the peptide solution serially diluted in 6% BSA/PBS from 1000 nM (1000, 100, 10, 1, 0.1, 0.01, 0.001 nM) and the solution was allowed to stand at room temperature for 30 minutes. The 1/25-fold diluted phage solution was added thereto and the whole solution was further allowed to stand for 2 hours. The solution was washed five times with PBST and then, each 100 μl of HRP-conjugated anti-M13 antibodies were added thereto and then, the resulting mixture was allowed to stand for 1 hour. The mixture was washed 6 times with PBST and once with PBS, and thereto was added each 100 μl of peroxydase substrate solution to examine the competition.
b) In order to test whether or not p1, p2 and p4 bind to the identical site on HRF, the wells were coated with HRF according to the substantially same procedure as in the above a).

PC12 cells = assay: Inhibition of HRF-stimulated dopamine release by HRF-binding peptide; format: cell-based; conditions: 60 μg/ml of p2, 15 μg/ml of HRF
Procedure: In order to confirm whether the peptides blocking histamine release by HRF also block neurotransmitters release in nerve cells, the peptide of SEQ ID No. 14 (p2) was tested for its effects on dopamine release stimulated by HRF according to the substantially same procedure as in Example 16.

Chain of malaria protein HRF (Q8I3Z5 whole entry): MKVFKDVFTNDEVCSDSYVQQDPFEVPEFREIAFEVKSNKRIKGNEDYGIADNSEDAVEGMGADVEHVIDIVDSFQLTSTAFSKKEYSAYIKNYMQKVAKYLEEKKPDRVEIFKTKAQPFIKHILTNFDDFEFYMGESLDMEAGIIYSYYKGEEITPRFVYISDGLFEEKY

Compound: C[C@@H]1CC[C@H]2[C@@H](C)C(=O)O[C@@H]3O[C@@]4(C)CC[C@@H]1[C@]32OO4 [Artemisinin]
- binding to malaria protein HRF (malaria protein HRF): binds to malaria protein HRF

Compound: AYVYPSM (OTHER INFORMATION: IgE-dependent histamine-releasi ng factor binding peptide) [m1, p2 variant, alanine substitution]
- effect on histamine release by HRF (RBL-2H3 cells): inhibited histamine release by HRF

Compound: LVTYPLP (OTHER INFORMATION: IgE-dependent histamine-releasi ng factor binding peptide) [p1]
- binding site on HRF, competitive binding analysis on ph2 (HRF): bound to the identical site on HRF
- effect on histamine release by HRF (RBL-2H3 cells): inhibited histamine release by HRF

Compound: WAVYPSM (OTHER INFORMATION: IgE-dependent histamine-releasi ng factor binding peptide) [m2, p2 variant, alanine substitution]
- effect on histamine release by HRF (RBL-2H3 cells): inhibited histamine release by HRF

Compound: WEFPGWM (OTHER INFORMATION: IgE-dependent histamine-releasi ng factor binding peptide) [p4]
- binding site on HRF, competitive binding analysis on ph2 (HRF): bound to the identical site on HRF
- competition of synthetic peptide with phage clones for HRF (HRF): bind to HRF competitively with phage clones ph2 and ph4
- effect on histamine release by HRF (RBL-2H3 cells): inhibited histamine release by HRF

Compound: WYAYPSM (OTHER INFORMATION: IgE-dependent histamine-releasi ng factor binding peptide) [m3, p2 variant, alanine substitution]
- effect on histamine release by HRF (RBL-2H3 cells): inhibited histamine release by HRF

Compound: WYVAPSM (OTHER INFORMATION: IgE-dependent histamine-releasi ng factor binding peptide) [m4, p2 variant, alanine substitution]
- effect on histamine release by HRF (RBL-2H3 cells): inhibited histamine release by HRF

Compound: WYVYKSM (OTHER INFORMATION: IgE-dependent histamine-releasi ng factor binding peptide) [m5, p2 variant, substituted with Lysine (K)]
- effect on histamine release by HRF (RBL-2H3 cells): inhibited histamine release by HRF

Compound: WYVYPAM (OTHER INFORMATION: IgE-dependent histamine rele asing factor binding peptide) [m6, p2 variant, alanine substitution]
- effect on histamine release by HRF (RBL-2H3 cells): conversely stimulated histamine release

Compound: WYVYPSA [m7, p2 variant, alanine substitution]
- effect on histamine release by HRF (RBL-2H3 cells): inhibited histamine release by HRF

Compound: WYVYPSM (OTHER INFORMATION: IgE-dependent histamine-releasi ng factor binding peptide) [p2]
- binding site on HRF, competitive binding analysis on ph2 (HRF): bound to the identical site on HRF
- competition of synthetic peptide with phage clones for HRF (HRF): bind to HRF competitively with phage clones ph2 and ph4
- inhibition of HRF-increased dopamine release (PC12 cells): about 60%
- peptide concentration that inhibited histamine release (RBL-2H3 cells; dose-response, 20 μg/ml HRF): ≥ 0.01 µg/mL
- effect on histamine release by HRF (RBL-2H3 cells): inhibited histamine release by HRF
